Experimental data: ChEMBL document CHEMBL4251586, “Design, synthesis and evaluation of an anthraquinone derivative conjugated to myelin basic protein immunodominant (MBP85-99) epitope: Towards selective immunosuppression” (Eur J Med Chem, 2018); call rule not given here

What was measured:
[1] = tested on: Jurkat; test: Induction of apoptosis in human Jurkat T cells assessed as downregulation of Bcl2 expression at 10 uM after 48 hrs by Western blot analysis; assay type: functional
[2] = tested on: HEK293; test: Cytotoxicity against HEK293 cells after 48 hrs by MTT assay; assay type: cell-based, Homo sapiens
[3] = Drug internalization in HEK293 cells at 10 uM after 30 to 60 mins by inverted fluorescence microscopy; assay type: ADME, cell-based; conditions: human, hek293, 10 µM

Compound | Activity [1] | IC50 ([2]; Homo sapiens, HEK293, 48 h) | Activity ([2]; human, hek293, 48 h) | Drug uptake [3]
O=C(CS)NCCCCNc1ccc(O)c2c1C(=O)c1ccccc1C2=O | 40% |  |  | 
NCCCCNc1ccc(O)c2c1C(=O)c1ccccc1C2=O.O=C(O)C(F)(F)F |  | 9.4 µM | Dose-dependent effect | Active
O=C1c2c(O)ccc(O)c2C(=O)c2c(NCCNCCO)ccc(NCCNCCO)c21 [MITOXANTRONE] | 50% |  |  | 
